Data: patent US8338420B1, “Treatment of Parkinson's disease and enhancement of dopamine signal using PDE 10 inhibitor” (Mitsubishi Tanabe Pharma Corporation, priority 2002, dated 2012)

What was measured:
[1] = tested on: marmoset MPTP model; experiment: Marmoset MPTP model, effect on bromocriptine efficacy; assay type: in vivo; conditions: together with bromocriptine (0.3 mg/kg), versus vehicle with bromocriptine
Experimental: Using bromocriptine (bromocriptine mesilate) as a dopamine receptor agonist, effect of test compound on pharmaceutical effects caused by administration of dopamine receptor agonist, in marmoset MPTP model was tested as follows.
The same method was employed as in Example 6, except for using bromocriptine (bromocriptine mesilate) in place of L-dopa and benserazide.
Each test was performed with respect to the same individual sequentially, and intervals of 5 days or more were allowed between the tests. • test 1: vehicle • test 2: vehicle and bromocriptine mesilate • test 3: test compound (PDE10 inhibitor) and bromocriptine mesilate
[…] Further, as test compounds, compounds confirmed with PDE10 inhibitory activities were administered via saphenous vein, 90 minutes before administration of bromocriptine mesilate, under anesthesia by ketamine and isoflurane (In test 1 and test 2, only vehicle was administered in place of the test compound in the same manner).
Bromocriptine mesilate was suspended in 0.5% methylcellulose solution on the day of administration and used. Test compound (PDE10 inhibitor) was dissolved in a solvent 30 minutes before administration and used.
After administration of test compound (PDE10 inhibitor) (or vehicle) and bromocriptine mesilate, locomotor activity and motor disability score were evaluated for each individual, in the same manner as in Example 6. […]

[2] = biological target: PDE1; experiment: PDE assay, PDE1 enzyme solution from rat ventricle; assay type: biochemical, SD rat; conditions: substrate about 12 nM [3H]-cGMP and 1 μM cGMP
Experimental: Ventricle was excised from SD rat anesthetized with sodium pentobarbital (Nihon SLC, about 300 g), and washed with 100 ml of ice-cold saline 3 times. After the tissues were cut in approximately 1 g, it was frozen by liquid nitrogen, and stored at −80° C.
To about 5 g of this tissue sample was added 16 ml of an ice-cold homogenization buffer I, and the resultant mixture was homogenized by Polytron homogenizer for 3 minutes. The homogenate was centrifuged at 8000 rpm, at 4° C. for 20 minutes, and the obtained supernatant was further centrifuged by an ultracentrifuge at 50000 rpm, at 4° C. for 60 minutes. The resultant supernatant was stored at 4° C. […]
Subsequently, the eluted fractions were used as an enzyme solution for PDE assay. […] (final concentration of 1 mM) or calcium chloride (final concentration of 2 mM) and calmodulin (40 unit s/ml), and cGMP-hydrolyzing activity was measured.
For these PDE1 containing fractions, cGMP hydrolyzing activities were analyzed in the presence of E4021 (100 nM), PDE5 specific inhibitor, it was shown that the cGMP-hydrolyzing activities in these fractions were not inhibited by E4021. […]
Further, in the presence or absence of unlabeled cGMP, cAMP-PDE activities were measured for each of the fractions. […]
Still further, in the presence of rolipram (10 μm), the PDE4 specific inhibitor, cAMP hydrolyzing activities were measured for each of the fractions. […]

[3] = tested on: neurons of corpus striatum; experiment: Change in intracellular cAMP in primary cultured neurons of corpus striatum; assay type: cell-based, Wistar rat
Experimental: (1) Primary culture of neurons of corpus striatum Female Wistar rats on day 14 or day 15 of pregnancy were purchased from Japan SLC, Co. Ltd., and fetuses were taken out on day 18 of pregnancy. From the fetus, the brain was excised, and stored on ice-cold Leibovitz's L-15 medium (available from GIBCO) or on DMEM/F-12 medium (available from GIBCO). In the same medium, dura matter was removed and corpus striatum was collected. This striatum part was treated by trypsin to diffuse neurons, and the neurons were diluted and diffused in DMEM medium containing 10% bovine fetal serum. These neurons were inoculated in 48-well plate coated with 0.01% poly-L-lysine (available from Sigma) (2×10^5 cells/well) and cultured. On the next day, the medium was changed to Neurobasal medium (available from GIBCO), containing 50 fold-diluted B-27 supplement (available from GIBCO), and then, half of the medium was replaced on day 4, 7 and 9 of culture, to continue culture.
As in the above (1), neurons were cultured, and on day 10 of culture, the medium was removed, and then, a test compound (PDE10 inhibitors, etc.) diluted with Hank's balanced salt solution were added, and incubated at 37° C. for 15 minutes. Following that, forskolin (final concentration of 1 μM) or dopamine (final concentration of 100 nM) or D1 agonist (SKF82958 Sigma) (final concentration of 3 nM, 10 nM, 30 nM) was added thereto, and further incubated at 37° C. for 15 minutes.
Intracellular cAMP was measured using cAMP EIA kit available from Amersham Biosciences. Accordingly, after removing the reaction mixture, lysis buffer 1B (attached to cAMP EIA kit) was added to stop the reaction, and to lead cytolysis, and intracellular cAMPs were extracted. An amount of cAMPs in the extract was measured according to a protocol attached to the cAMP EIA kit.

IC50 [2]: > 1000 nM
SMILES: COc1ccc(-c2cc(N3CCCC3)nc(/C=C/c3nc(-n4ccnc4)c4ccccc4n3)n2)cc1OC [Compound A, 2-{(E)-2-[4-(1-imidazolyl)-quinazolin-2-yl]}ethenyl-4-(3,4-dimethoxy)phenyl-6-(pyrrolidin-1-yl)pyrimidine]
effects of bromocriptine to alleviate symptoms (locomotor activity and motor disability score) [1]: had a tendency to enhance the effects of bromocriptine to alleviate symptoms
intracellular cAMP increase caused by dopamine stimulus in neuron ([3]; compound concentration 1 μM, dopamine 100 nM): enhanced intracellular cAMP increase caused by dopamine stimulus
intracellular cAMP increase caused by D1 agonist (SKF82958) stimulus in neuron ([3]; compound concentration 10 μM, 1 μM): enhanced intracellular cAMP increase caused by D1 agonist
intracellular cAMP increase caused by forskolin stimulus in neuron ([3]; compound concentration 10 μM, 1 μM, forskolin 1 μM): enhanced intracellular cAMP increase caused by forskolin stimulus
